Assay results reported in patent EP0800516B1, “FIBRINOGEN RECEPTOR ANTAGONISTS HAVING SUBSTITUTED (b)-AMINO ACID RESIDUES AND PHARMACEUTICAL COMPOSITIONS COMPRISING THE SAME” (Nippon Steel Corporation, priority 1994, dated 1996).

test system: Human Platelet Aggregation; assay: in vitro human platelet aggregation using PRP (collagen-induced, light transmittance); assay type: cell-based; details: aggregation induced with collagen (final concentration: 5 µ g/ml), 37°C
Text: (Measurement of in vitro Human Platelet Aggregation using PRP)
Healthy male volunteers who had not taken any medicines for at least two weeks were selected as subjects. Blood was collected from the forearm vein of each subject on an empty stomach using a #19 needle and a plastic syringe preliminarily charged with 1/10 volume of a 3.8% sodium citrate solution. Immediately after the blood collection, the syringe was shaken gently to mix the blood with the sodium citrate solution. The mixed blood was centrifuged (1100 rpm, 250 g) at room temperature for 15 minutes and the rotation was stopped without applying the brake. Then, the supernatant was collected with a Komagome type pipette to obtain platelet-rich plasma (PRP). The PRP was stored at room temperature. The blood remaining after centrifuging was further centrifuged (3500 rpm, 1500 g) at room temperature for 15 minutes and the rotation was stopped without applying the brake. The supernatant was collected to obtain platelet-poor plasma (PPP). After the preparation of the PRP, the number of platelets was counted and only samples containing more than 2 x 10^8 of platelets per milliliter were subjected to the following experiments.
Platelet aggregation was measured using an 8-channel platelet aggregation measuring instrument (Hematracer, Nikoh Bioscience, Tokyo, Japan) on the basis of the change in light transmittance through the PRP. First, the PPP and PRP (each 200µl) were placed in glass cuvettes and incubated at 37°C . Thereafter, the transmittance was measured. The transmittance of the PPP was determined as 100% and that of the PRP as 0%. Then, 10µl of physiological saline or a sample-containing physiological saline was added to the PRP and incubated at 37°C for one minute. A collagen solution (10 µ l) at a concentration of […] was added (final concentration: 5 µ g/ml) to induce aggregation and thereafter the transmittance was measured over 7 minutes. After aggregation with collagen and ADP was confirmed, only those samples in which the maximum aggregation with collagen was at least 70% were subjected to the experiment.
The sample was dissolved in physiological saline to give a concentration of 2.2 x 10 ^-2 M and a 2-fold dilution series was prepared for use in the experiments. The samples insoluble in the physiological saline were dissolved in physiological saline containing 10% DMSO (dimethyl sulfoxide).
The results were calculated as follows: [formula]
A graph was constructed by plotting the percent aggregation inhibition against the sample concentration and the concentration at which the aggregation was inhibited by 50% (IC50) was calculated from the graph.

| SMILES | IC50 [nM] |
| --- | --- |
| CC(C)(C(=O)N1CCC(CC(=O)O)CC1)C(NC(=O)c1ccc(C(=N)N)cc1)c1ccc(O)cc1 (stereo not drawn) [Example 27, N-(N-4-amidinobenzoyl-β-p-hydroxyphenyl-α, α-dimethyl-β-alanyl)-4-piperidineacetic acid] | 200 |
| CC(C)(C(=O)N1CCC(CC(=O)O)CC1)C(NC(=O)c1ccc(C(=N)N)cc1)c1cccc(O)c1 (stereo not drawn) [Example 28, N-(N-4-amidinobenzoyl-β-m-hydroxyphenyl-α, α-dimethyl-β-alanyl)-4-piperidineacetic acid] | 76 |
| CC=CC(NC(=O)c1ccc(C(=N)N)cc1)C(C)(C)C(=O)N1CCC(CC(=O)O)CC1 (stereo not drawn) [Example 29, N-(N-4-amidinobenzoyl-β-1-propenyl-α,α-dimethyl-β-alanyl)-4-piperidineacetic acid] | 100 |
| CCCCC(NC(=O)c1ccc(C(=N)N)cc1)C1(C(=O)N2CCC(CC(=O)O)CC2)CCCCC1 (stereo not drawn) [Example 30, N-(((N-4-amidinobenzoyl)-1-amino)-1-pentyl-1-cyclohexane-carbonyl)-4-piperidineacetic acid] | 160 |
| CN(C)c1ccc(C(NC(=O)c2ccc(C(=N)N)cc2)C(C)(C)C(=O)N2CCC(CC(=O)O)CC2)cc1 (stereo not drawn) [Example 31, N-(N-4-amidinobenzoyl-β-p-N,N-dimethylaminophenyl-α, α-dimethyl-β-alanyl)-4-piperidineacetic acid] | 470 |
| CCCCc1ccc(C(NC(=O)c2ccc(C(=N)N)cc2)C(C)(C)C(=O)N2CCC(CC(=O)O)CC2)cc1 (stereo not drawn) [Example 32, N-(N-4-amidinobenzoyl-β-p-n-butylphenyl-α, α-dimethyl-β-alanyl)-4-piperidineacetic acid] | 150 |
| CCCCC(NC(=O)c1ccc(C(=N)N)cc1F)C(C)(C)C(=O)N1CCC(CC(=O)O)CC1 (stereo not drawn) [Example 33, N-(N-4-amidino-2-fluorobenzoyl-β-n-butyl-α ,α-dimethyl-β-alanyl)-4-piperidineacetic acid] | 73 |
| CC(C)(C(=O)N1CCC(CC(=O)O)CC1)C(NC(=O)c1ccc(C(=N)N)cc1Cl)c1ccccc1 (stereo not drawn) [Example 34, N-(N-4-amidino-2-chlorobenzoyl-β-phenyl-α, α-dimethyl-β-alanyl)-4-piperidineacetic acid] | 360 |
| CC(C)(C(=O)N1CCC(CC(=O)O)CC1)C(CCc1cccc(O)c1)NC(=O)c1ccc(C(=N)N)cc1 (stereo not drawn) [Example 37, N-(N-4-amidinobenzoyl-β-m-hydroxyphenethyl-α, α-dimethyl-β-alanyl)-4-piperidineacetic acid] | 190 |
| C#CC(NC(=O)c1ccc(C(=N)N)cc1)C(C)(C)C(=O)N1CCC(CC(=O)O)CC1 (stereo not drawn) [Example 38, N-(N-4-amidinobenzoyl-β-ethynyl-α,α-dimethyl-β-alanyl)-4-piperidineacetic acid] | 150 |
| CCC(NC(=O)c1ccc(C(=N)N)cc1F)C(C)(C)C(=O)N1CCC(CC(=O)O)CC1 (stereo not drawn) [Example 39, N-(N-4-amidino-2-fluorobenzoyl-β-ethyl-α, α-dimethyl-β-alanyl)-4-piperidineacetic acid] | 61 |
| CC(NC(=O)c1ccc(C(=N)N)cc1F)C(C)(C)C(=O)N1CCC(CC(=O)O)CC1 (stereo not drawn) [Example 40, N-(N-4-amidino-2-fluorobenzoyl-β-methyl-α, α-dimethyl-β-alanyl)-4-piperidineacetic acid] | 75 |
